From patent US5780441A, “Sphingoglycolipid compounds and therapeutic uses thereof” (Kirin Beer Kabushiki Kaisha, priority 1993, dated 1998)

How the values were obtained:
[1] = tested on: P388 mouse leukemia cells; assay: Life-span-prolonging (anti-tumor) effect on mice subcutaneously inoculated with P388 mouse leukemia cells; format: in vivo, mouse (CDF1 female); conditions: for Survival days ave. ± s. d. / response vs control in vivo at 0.1 mg/kg / T/C (%): 0.1 mg/kg i.v. on days 1, 5 and 9; for Survival days ave. ± s. d.: all marked ** (p < 0.01); for response vs control in vivo at 0.1 mg/kg: Mus musculus, P388, iv, read-out: T/C (%); for response vs control in vivo at 0.1 mg/kg / T/C (%): survival vs vehicle
Procedure, shortened: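 CDF1 female mice (6 weeks), 5 per group, inoculated subcutaneously with P388 leukemia cells; life-span prolongation assessed. Lentinan and picibanil given intravenously on days 1, 3, 5, 7 and 9 after implantation; sizofilan given subcutaneously on days 1 through 9. Statistics by Mann-Whitney test.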

[2] = Solubility in water in aqueous Polysorbate 20 solutions; format: physicochemical
Protocol: Compounds a and b comprising a monosaccharide as a constituent sugar which are disclosed in WO 93/05055 were synthesized as above. A 1 mg of each of the present compounds 4, 31 and 33 and Compound a and b was dissolved in 1 ml of an aqueous Polysorbate 20 solution in a variety of concentrations in order to observe visually the property.

mouse bone marrow cells = assay: In vitro mouse bone marrow cell-proliferation-promoting effect (3H-TdR uptake); format: cell-based, mouse (BDF1 female); conditions: 4 days; for activity at 0.1 µg/mL / activity at 0.01 µg/mL: Mus musculus, Bone marrow cell, 96 h, read-out: Uptake of 3H-TdR (% of control), bone marrow cells; for Uptake of 3H-TdR (% of control), bone marrow cells: 5760 min
Procedure, shortened: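 Femoral bone marrow monocytes from 6-week female BDF1 mice (Lympholite M fraction, 1×10^6 cells/ml in 10% FCS RPMI 1640) cultured with sample for 4 days at 37 °C, 5% CO2. 3H-TdR (0.5 μCi/well) added for final 6 h; uptake ratio versus vehicle reported as activation rate.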

[3] = tested on: mixed lymphocyte culture reaction (spleen cells of C57BL/6 and BALB/C mice); assay: Mixed lymphocyte culture reaction (MLR); format: cell-based, mouse (C57BL/6 stimulator, BALB/C responder); conditions: 42 hours; for MLR activating rate (%): 2520 min
Procedure, shortened: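 Mouse one-way MLR: mitomycin C-treated (50 μg/ml, 30 min) C57BL/6 spleen cells stimulated BALB/C responder spleen cells, 2×10^6 cells/ml each, cultured 42 h at 37 °C with sample. ³H-thymidine (0.5 μCi/well) incorporation over a further 8 h gave MLR activating rate as % of vehicle uptake.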

mouse splenic lymphocyte = assay: In vitro mouse splenic lymphocyte-proliferation-stimulating effect (3H-TdR uptake); format: cell-based, mouse (BDF1 female); conditions: 2 days; for Uptake of 3H-TdR (% of control), splenic lymphocytes: 2880 min
Procedure, shortened: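 Spleen cells from 6-week-old female BDF1 mice, 2×10^6 cells/ml in 10% FCS RPMI 1640, cultured with vehicle or sample 2 days at 37° C, 5% CO2. ^3H-TdR (0.5 μCi/well) uptake over 6 h by scintillation counting, expressed as % of vehicle.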

B16 mouse melanoma cells = assay: Tumor growth inhibition in mice subcutaneously inoculated with B16 mouse melanoma cells; format: in vivo, mouse (BDF1 female); conditions: 0.1 mg/kg i.v. days 1, 5, 9; maximum during 20 days
Protocol: ii) Anti-tumor effect of the compound according to the present invention on mice subcutaneously inoculated with B16 mouse melanoma cells.
Experiment was performed with BDF1 female mice (6 weeks) purchased from NIPPON SLC K.K., which were divided into groups consisting of 6 animals. […]. The subcutaneous tumor volumes [(length×width×height)/2] were measured on days 8, 12, 16 and 20 after implantation to determine the tumor growth inhibiting rate (TGIR) of each sample. TGIR was calculated from the following formula: […]
wherein C: tumor volume in the control group, and
T: tumor volume in the sample adminitered groups.
In this connection, Compounds 1-6 and 7-9 were tested in the same time, respectively.

lethally irradiated mice = assay: Radioprotective effect: life-span prolongation of lethally irradiated mice; format: in vivo, mouse (BDF1 female); conditions: 0.1 mg/kg i.v. days 0, 4, 8, 9 Gy X-ray, groups of 10
Protocol: Life-span-prolonging effects of the present compounds on lethally irradiated mice.
Experiment was performed with BDF1 female mice (6 weeks old) purchased from NIPPON SLC K.K., which were divided into groups consisting of 10 animals. Mice were irradiated generally with 9 Gy of X-ray with an X-ray generating apparatus, Hitachi, MBR-1520R (radiation day: day 0). Samples at a dose of 0.1 mg/kg were administered into tail vein on days 0, 4 and 8 in order to observe the mortality of the animals for 40 days.
In the table, two experiments are separated by the broken line.

[4] = tested on: mouse splenic lymphocytes; assay: Influence of Polysorbate on immunostimulating effect (3H-TdR uptake into mouse splenic lymphocytes); format: cell-based, mouse (BDF1 female); conditions: for 3H-TdR uptake: 10% PS20 stock (compound 1 mg/ml), mean of 3 wells
Protocol: Experiment was performed with BDF1 female mice (6 weeks old) purchased from NIPPON SLC K.K. Spleens were removed from mice, and spleen cells were brayed with slide glasses and hemolized with NH4 Cl. 2×10^6cells/ml of the spleen cells which had been hemolized were suspended in 10% FCS RPMI 1640. The cell suspension (100 μl/well) and a vehicle or sample (10 μl/well) which was prepared so as to have a final level shown in Table 3 were added into wells of a round-bottomed 96 well plate, and cultured under the condition of 5% CO2 at 37° C. for 2 days. 0.5 μCi/well of ^3 H-thymidine (^3 H-TdR) was added. After 6 hours, the cells were harvested, and the amount of ^3 H-TdR uptaken into nucleus was measured by a liquid scintillation counter. The ratio (%) of the uptake of ^3 H-TdR in the sample group to that in the vehicle group was calculated and used as the in vitro mouse splenic lymphocyte-proliferation-stimulating rate.
A sample of a solution of 1 mg of Compound 33 prepared in Experimental Example 8 in 1 ml of 10% or 0.1% Polysorbate 20, a sample of a solution of 1 mg of Compound b in 1 ml of 10% Polysorbate 20, or 10% and 0.1% Polysorbate 20, were prepared by subjecting to aseptic filtration followed by sequential 10 time dilution with PBS as shown in Table 5 in order to carry out the experiment described in Experimental Example 6.
In this connection, 1 mg of Compound b was insoluble in 0.1% Polysorbate, and thus no experiment was conducted.

| SMILES | Survival days ave. ± s. d. [1] | response vs control in vivo at 0.1 mg/kg [1] | activity at 0.1 µg/mL (mouse bone marrow cells; 10^-1 μg/ml) | activity at 0.01 µg/mL (mouse bone marrow cells; 10^-2 μg/ml) | T/C (%) [1] | Maximum tumor growth inhibiting rate, TGIR (%) (B16 mouse melanoma cells) | Uptake of 3H-TdR (% of control), bone marrow cells (mouse bone marrow cells; 10^-1 μg/ml) | Uptake of 3H-TdR (% of control), bone marrow cells (mouse bone marrow cells; 10^-2 μg/ml) | MLR activating rate (%) ([3]; 1 × 10^0 μg/ml) | MLR activating rate (%) ([3]; 1 × 10^-1 μg/ml) | Number of surviving mice (lethally irradiated mice; day 15, 0.1 mg/kg) | Number of surviving mice (lethally irradiated mice; day 20, 0.1 mg/kg) | Number of surviving mice (lethally irradiated mice; day 25, 0.1 mg/kg) | Number of surviving mice (lethally irradiated mice; day 30, 0.1 mg/kg) | Number of surviving mice (lethally irradiated mice; day 35, 0.1 mg/kg) | Number of surviving mice (lethally irradiated mice; day 40, 0.1 mg/kg) | Uptake of 3H-TdR (% of control), splenic lymphocytes (mouse splenic lymphocyte; 10^0 μg/ml) | Uptake of 3H-TdR (% of control), splenic lymphocytes (mouse splenic lymphocyte; 10^-1 μg/ml) | Uptake of 3H-TdR (% of control), splenic lymphocytes (mouse splenic lymphocyte; 10^-2 μg/ml) | Uptake of 3H-TdR (% of control), splenic lymphocytes (mouse splenic lymphocyte; 10^-3 μg/ml) | further results |
| --- | --- | --- | --- | --- | --- | --- | --- | --- | --- | --- | --- | --- | --- | --- | --- | --- | --- | --- | --- | --- | --- |
| CCCCCCCCCCCCCCCCCCCCCCCCCC(=O)N[C@@H](CO[C@H]1O[C@H](CO[C@H]2O[C@H](CO)[C@H](O)[C@H](O)[C@H]2O)[C@@H](O)[C@H](O)[C@H]1O)[C@H](O)[C@H](O)CCCCCCCCCCCCCC [Compound 31, O-α-D-galactopyranosyl-(1→6)-O-α-D-glucopyranosyl-(1→1)-(2S,3S,4R)-2-amino-N-hexacosanoyl-1,3,4-octadecanetriol] | 14.6 ± 0.5 days | 114% | 296% | 594% |  |  |  |  |  |  |  |  |  |  |  |  |  |  |  |  | life-span-prolonging effect (anti-tumor effect), in words ([1]; P388 s.c. system): intensive anti-tumor effects almost in the same level as that of Compound b; amount of Polysorbate 20 required for dissolving, relative to that required for Compound b ([2]; vs Compound b): 1/100; activity at 1 µg/mL ([3]; Mus musculus, Lymphocyte, 1 × 10^0 μg/ml, read-out: MLR activating rate (%)): 206%; activity at 0.1 µg/mL ([3]; Mus musculus, Lymphocyte, 1 × 10^-1 μg/ml, read-out: MLR activating rate (%)): 196%; activity at 1 µg/mL (mouse splenic lymphocyte; Mus musculus, Splenic lymphocyte, 48 h, 10^0 μg/ml, read-out: Uptake of 3H-TdR (% of control), splenic lymphocytes): 615%; activity at 0.001 µg/mL (mouse splenic lymphocyte; Mus musculus, Splenic lymphocyte, 48 h, 10^-3 μg/ml, read-out: Uptake of 3H-TdR (% of control), splenic lymphocytes): 744% |
| CCCCCCCCCCCCCCCCCCCCCC[C@@H](O)C(=O)N[C@@H](CO[C@H]1O[C@H](CO)[C@H](O)[C@H](O[C@H]2O[C@H](CO)[C@H](O)[C@H](O)[C@H]2NC(C)=O)[C@H]1O[C@H]1O[C@H](CO)[C@@H](O)[C@H](O)[C@H]1O)[C@H](O)[C@H](O)CCCCCCCCCCCC(C)C [Compound 5, O-(N-acetyl-2-amino-2-deoxy-α-D-galactopyranosyl)-(1→3)-O-[α-D-glucopyranosyl-(1→2)]-O-α-D-galactopyranosyl-(1→1)-(2S,3S,4R)-2-amino-N-[(R)-2-hydroxytetracosanoyl]-16-methyl-1,3,4-heptadecanetriol] | 15.2 ± 1.1 days |  |  |  | 119% | 86.8% | 330 % of control | 283 % of control | 189% | 176% | 8 mice | 7 mice | 7 mice | 7 mice | 7 mice | 7 mice | 889 % of control | 764 % of control | 612 % of control | 592 % of control | Number of surviving mice (lethally irradiated mice; day 10): 10 mice |
| CCCCCCCCCCCCCCCCCCCCCC[C@@H](O)C(=O)N[C@@H](CO[C@H]1O[C@H](CO)[C@H](O)[C@H](O[C@H]2O[C@H](CO)[C@H](O)[C@H](O)[C@H]2NC(C)=O)[C@H]1O[C@H]1O[C@H](CO)[C@@H](O)[C@H](O)[C@H]1O)[C@H](O)[C@H](O)CCCCCCCCCCCCCC [Compound 6, O-(N-acetyl-2-amino-2-deoxy-α-D-galactopyranosyl)-(1→3)-O-[α-D-glucopyranosyl-(1→2)]-O-α-D-galactopyranosyl-(1→1)-(2S,3S,4R)-2-amino-N-[(R)-2-hydroxytetracosanoyl]-1,3,4-octadecanetriol] | 15.8 ± 1.1 days |  |  |  | 123% | 91.2% | 431 % of control | 142 % of control | 228% | 194% | 10 mice | 8 mice | 8 mice | 8 mice | 8 mice | 8 mice | 883 % of control | 979 % of control | 649 % of control | 543 % of control | Number of surviving mice (lethally irradiated mice; day 10, 0.1 mg/kg): 10 mice |
| CCCCCCCCCCCCCCCCCCCCCCCCCC(=O)N[C@@H](CO[C@H]1O[C@H](CO)[C@H](O)[C@H](O)[C@H]1O)[C@H](O)[C@H](O)CCCCCCCCCCCCCC [Compound b, (2S,3S,4R)-1-(α-D-galactopyranosyloxy)-2-hexacosanoylamino-3,4-octadecanediol, reference compound] | 15.6 ± 0.5 days | 122% | 381% | 438% |  |  |  |  |  |  |  |  |  |  |  |  |  |  |  |  | solubility in Polysorbate, in words ([2]; 1 mg in 0.1% Polysorbate): insoluble; 3H-TdR uptake in words, compound with Polysorbate 20 ([4]; 10 μg/ml (0.1% Polysorbate 20) and 1 μg/ml (0.01%) vs 0.1 μg/ml (0.001%)): suppressed; 3H-TdR uptake ([4]; dilution 10^2): 201 cpm; 3H-TdR uptake ([4]; dilution 10^3): 18300 cpm; 3H-TdR uptake ([4]; dilution 10^4): 24439 cpm; 3H-TdR uptake ([4]; dilution 10^5): 25555 cpm |
